Experimental data from patent US12194038B2, “Use of flibanserin in preparation of drug for treating androgenic alopecia” (SHANGHAI DIMAIHE BIOTECHNOLOGY CO., LTD., priority 2022, dated 2025).
Values joined by “and” are separate entries in the source; they are usually repeats but may differ in a detail not shown here. Identical values can stand only once. Like-named read-outs stand apart in the source and are kept apart here.

Legend:
Lncap cells [1] = conditions: 48 h
AGA model mice = test: Hair restoration in testosterone propionate-induced AGA model mice; assay type: in vivo; conditions: for Effective rate of animal hair restoration (effective rate of drug) / Hair restoration compared with the model group: AGA model mice, intragastric administration for 4 weeks
Experimental: Animal experiment-related reagents: testosterone propionate, Batch No. T818615. Soybean oil, Batch No. A23GS146219. 80 mg of testosterone propionate was dissolved in 40 mL of soybean oil to prepare a solution at 2 mg/mL. […] Flibanserin, Batch No. W1608745834, 0.32 mg of flibanserin was dissolved in 20 mL of physiological saline to prepare a solution at 1.6×10^−2 mg/mL
The experimental animals are male […] mice, non-inbred closed colony, weighing 18-22 g, aged 5 weeks, certificate number: No. 202207119, provided by the Institute of Comparative Medicine, Yangzhou University. In the laboratory, room temperature is 20° C.-22° C., the relative humidity is 40%-60%, ventilation is provided by a ventilation fan, and the natural light source is provided for 12 h/day. The mice were caged, with 7 mice per cage, and the cages were cleaned every three days.
Before the injection of testosterone propionate for modeling, pre-treatment was first performed, wherein the pre-treatment comprises: fixing the mice, shaving off the hairs on the back of the mice by an electric shaver, and unhairing vellus hairs using an unhairing cream. […] After successful modeling, the intragastric administration was performed for 4 weeks on the basis of the injection of the testosterone propionate solution. After the administration was completed, the effective rate (percentage of hair restoring mice to the total number of mice) of the drug was subjected to statistical analysis, and the ratio of the area of the hair growing part to the area of the unhairing part in mice was subjected to statistical analysis. The mouse hairs were taken from multiple points at different hair restoring parts on the back of the mice for length measurement and statistical analysis. The mice were sacrificed by cervical dislocation, and the back skin was taken, wherein a part of the back skin was frozen at −80° C. for extracting protein and performing a nuclear protein and cytoplasmic protein separation experiment to explore the inhibition of the drug on the nuclear localization of the androgen receptor dimer, and a part of the back skin was fixed with 4% paraformaldehyde (Cat. No.: AF030) for 48 h, and then subjected to tissue section and HE staining. […] Determination criteria: The unhairing area of the back of the mice after unhairing was measured, noted as A, the hair growing area of the back of the mice after the completion of the administration was measured, noted as B, and the mean value of the […] in each group was taken as the effective rate of animal hair restoration.

androgen receptor = molecular target: T1, androgen receptor (Mus musculus, UniProt P19091); test: Nuclear protein and cytoplasmic protein separation experiment in primary hair follicle dermal papilla cells; assay type: cell-based; conditions: 48 h
T1 construct: Mouse primary hair follicle dermal papilla cells were extracted according to enzymatic digestion and cultured for 10 days; endogenous in cells; host or cells: mouse primary hair follicle dermal papilla cells
T1 sequence (P19091 1-899): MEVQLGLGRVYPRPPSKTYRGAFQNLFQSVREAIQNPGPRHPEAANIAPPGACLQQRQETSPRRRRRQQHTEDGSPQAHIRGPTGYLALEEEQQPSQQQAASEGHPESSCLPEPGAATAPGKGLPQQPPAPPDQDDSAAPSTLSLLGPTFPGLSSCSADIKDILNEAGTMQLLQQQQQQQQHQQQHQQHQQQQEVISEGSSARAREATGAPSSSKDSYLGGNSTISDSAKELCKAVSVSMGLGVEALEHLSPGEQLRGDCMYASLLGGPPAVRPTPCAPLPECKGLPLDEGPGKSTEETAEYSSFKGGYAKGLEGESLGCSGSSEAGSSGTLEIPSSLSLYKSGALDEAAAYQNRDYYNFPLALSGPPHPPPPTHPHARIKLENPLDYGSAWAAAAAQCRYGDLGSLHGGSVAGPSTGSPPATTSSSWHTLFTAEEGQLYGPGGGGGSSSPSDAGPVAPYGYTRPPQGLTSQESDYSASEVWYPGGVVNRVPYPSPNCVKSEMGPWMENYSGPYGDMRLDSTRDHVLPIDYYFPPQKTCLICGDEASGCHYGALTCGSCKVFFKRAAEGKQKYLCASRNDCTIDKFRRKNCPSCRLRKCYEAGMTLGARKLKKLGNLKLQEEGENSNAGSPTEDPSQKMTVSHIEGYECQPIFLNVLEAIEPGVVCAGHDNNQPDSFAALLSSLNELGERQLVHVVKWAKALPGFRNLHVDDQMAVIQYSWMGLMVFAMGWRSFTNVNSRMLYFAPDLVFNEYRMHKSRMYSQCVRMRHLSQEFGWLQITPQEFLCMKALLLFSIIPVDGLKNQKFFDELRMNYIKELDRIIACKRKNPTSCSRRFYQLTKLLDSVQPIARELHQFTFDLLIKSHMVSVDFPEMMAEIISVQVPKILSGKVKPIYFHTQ

Lncap cells [2] = test: Inhibition of proliferation of DHT-stimulated Lncap cells by flibanserin (MTT); assay type: cell-based, human; conditions: for OD value in administration group-OD value in control group: replicate values
[3] = DHT 10^−8 mol/L + flibanserin 5 and 1 μmol/L (both doses), compared with finasteride group and DHT group
[4] = HE staining of tissue sections, compared with the model group

C[C@]12CCC(=O)C[C@@H]1CC[C@@H]1[C@@H]2CC[C@]2(C)[C@@H](O)CC[C@@H]12 [DHT, dihydrotestosterone]
Mean proliferation rate (Lncap cells [1]; DHT 10^−5 uM): −12.91% | Mean proliferation rate (Lncap cells [1]; DHT 10^−6 uM): 6.30% | Mean proliferation rate (Lncap cells [1]; DHT 10^−7 uM): 7.77% | Mean proliferation rate (Lncap cells [1]; DHT 10^−8 uM): 9.47% | Mean proliferation rate (Lncap cells [1]; DHT 10^−9 uM): 10.01% | Mean proliferation rate (Lncap cells [1]; DHT 10^−10 uM): 2.79%

CC(C)(C)NC(=O)[C@H]1CC[C@H]2[C@@H]3CC[C@H]4NC(=O)C=C[C@]4(C)[C@H]3CC[C@]12C [Finasteride, finasteride]
Effective rate of animal hair restoration (effective rate of drug) (AGA model mice): 71.4% | Effective rate of animal hair restoration (effective rate of drug) (AGA model mice; listed as finasteride): 71.4% | Hair restoration compared with the model group (AGA model mice; listed as finasteride): restored to varying degrees

O=c1[nH]c2ccccc2n1CCN1CCN(c2cccc(C(F)(F)F)c2)CC1 [Flibanserin, flibanserin]
Total level of the androgen receptor (androgen receptor; DHT 10^−8 mol/L + finasteride 5 μmol/L or flibanserin 5 and 1 μmol/L, compared with DHT group): no significant difference | Level of the androgen receptor in the cytoplasm (androgen receptor; [3]): increased | Level of the androgen receptor in the nucleus (androgen receptor; [3]): decreased | inhibition at 0.001 µM (Lncap cells [2]; Homo sapiens, LNCaP, flibanserin 0.001 uM, 48 h, after modeling with 10^−9 M DHT, read-out: Mean proliferation inhibition rate): 11.9% | inhibition at 0.1 µM (Lncap cells [2]; Homo sapiens, LNCaP, flibanserin 0.1 uM, 48 h, after modeling with 10^−9 M DHT, read-out: Mean proliferation inhibition rate): 11% | inhibition at 1 µM (Lncap cells [2]; Homo sapiens, LNCaP, flibanserin 1 uM, 48 h, after modeling with 10^−9 M DHT, read-out: Mean proliferation inhibition rate): 20.1% | inhibition at 10 µM (Lncap cells [2]; Homo sapiens, LNCaP, flibanserin 10 uM, 48 h, after modeling with 10^−9 M DHT, read-out: Mean proliferation inhibition rate): 45.9% | inhibition at 50 µM (Lncap cells [2]; Homo sapiens, LNCaP, flibanserin 50 uM, 48 h, after modeling with 10^−9 M DHT, read-out: Mean proliferation inhibition rate): 82.4% | inhibition at 100 µM (Lncap cells [2]; Homo sapiens, LNCaP, flibanserin 100 uM, 48 h, after modeling with 10^−9 M DHT, read-out: Mean proliferation inhibition rate): 85.5% | OD value in administration group-OD value in control group (Lncap cells [2]; flibanserin 0.001 uM, 48 h): 0.72 and 0.981 and 0.8943 and 0.8405 and 0.9681 | OD value in administration group-OD value in control group (Lncap cells [2]; flibanserin 0.1 uM, 48 h): 0.7821 and 0.9153 and 0.9204 and 0.8399 and 0.9938 | OD value in administration group-OD value in control group (Lncap cells [2]; flibanserin 1 uM, 48 h): 0.7947 and 0.8164 and 0.702 and 0.8345 and 0.8472 | OD value in administration group-OD value in control group (Lncap cells [2]; flibanserin 10 uM, 48 h): 0.3592 and 0.6076 and 0.5562 and 0.5302 and 0.6538 | OD value in administration group-OD value in control group (Lncap cells [2]; flibanserin 50 uM, 48 h): 0.1738 and 0.1424 and 0.1556 and 0.1886 and 0.2218 | OD value in administration group-OD value in control group (Lncap cells [2]; flibanserin 100 uM, 48 h): 0.1345 and 0.1157 and 0.119 and 0.1751 and 0.1812 | Inhibition of the proliferation of Lncap cells (Lncap cells [2]; flibanserin at a low concentration, MTT): can inhibit | Effective rate of animal hair restoration (effective rate of drug) (AGA model mice): 85.7% | Effective rate of animal hair restoration (effective rate of drug) (AGA model mice; listed as flibanserin): 85.7% | Hair restoration compared with the model group (AGA model mice; listed as flibanserin): restored to varying degrees | Diameter of hair follicles (AGA model mice; [4]): increase | Number of hair follicles per unit area (AGA model mice; [4]): increase | Ratio of anagen to telogen (AGA model mice; [4]): increase | Ratio of epidermal thickness to dermal thickness (AGA model mice; [4]): increase | Hair length (AGA model mice; compared with the model group): increase
